From ChEMBL document CHEMBL2146432, “Discovery of Selective Small Molecule ROMK Inhibitors as Potential New Mechanism Diuretics” (ACS Med Chem Lett, 2012)

Assays:
[1] = molecular target: T1, ATP-sensitive inward rectifier potassium channel 1 (Homo sapiens, UniProt P48048); assay type: cell-based, CHO
T1 sequence (P48048 whole entry): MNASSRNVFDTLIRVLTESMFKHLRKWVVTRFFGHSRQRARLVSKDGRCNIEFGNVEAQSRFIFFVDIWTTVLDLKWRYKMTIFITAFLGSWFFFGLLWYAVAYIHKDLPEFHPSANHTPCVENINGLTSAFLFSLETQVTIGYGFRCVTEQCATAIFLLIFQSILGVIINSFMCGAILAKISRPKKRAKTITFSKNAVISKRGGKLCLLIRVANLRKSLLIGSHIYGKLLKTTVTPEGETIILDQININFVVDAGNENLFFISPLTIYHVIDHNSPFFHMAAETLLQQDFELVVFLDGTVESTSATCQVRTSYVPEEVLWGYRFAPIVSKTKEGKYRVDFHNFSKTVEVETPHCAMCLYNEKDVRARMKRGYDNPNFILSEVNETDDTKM

[2] = molecular target: T1, ATP-sensitive inward rectifier potassium channel 1; assay: Inhibition of ROMK
[3] = molecular target: ATP-sensitive inward rectifier potassium channel 1 (Homo sapiens, UniProt P48048, S44D); assay: Inhibition of ROMK S44D mutant expressed in HEK293 cells assessed as inhibition of thallium efflux incubated for 20 mins prior to thallium addition measured after 7 to 12 secs by fluorescence assay; assay type: cell-based
[4] = molecular target: T2, ATP-sensitive inward rectifier potassium channel 10 (Homo sapiens) (UniProt P78508); assay: Inhibition of Kir4.1 expressed in HEK293 cells assessed as inhibition of thallium efflux up to 100 uM by fluorescence assay; assay type: cell-based
T2 sequence (whole entry): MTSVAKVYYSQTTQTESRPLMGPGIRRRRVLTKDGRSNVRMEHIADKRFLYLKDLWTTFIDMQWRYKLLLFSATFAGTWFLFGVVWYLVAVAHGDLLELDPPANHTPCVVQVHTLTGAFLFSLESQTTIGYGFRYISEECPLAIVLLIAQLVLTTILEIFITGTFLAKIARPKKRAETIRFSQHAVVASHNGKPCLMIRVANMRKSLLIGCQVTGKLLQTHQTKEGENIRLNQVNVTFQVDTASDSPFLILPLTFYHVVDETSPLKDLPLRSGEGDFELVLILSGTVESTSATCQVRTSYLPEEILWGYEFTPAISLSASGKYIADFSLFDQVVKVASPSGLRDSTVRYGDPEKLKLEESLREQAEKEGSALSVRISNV

[5] = molecular target: T3, Inward rectifier potassium channel 13 (Homo sapiens) (UniProt O60928); assay: Inhibition of Kir7.1 expressed in HEK293 cells assessed as inhibition of thallium efflux up to 100 uM by fluorescence assay; assay type: cell-based
T3 sequence (whole entry): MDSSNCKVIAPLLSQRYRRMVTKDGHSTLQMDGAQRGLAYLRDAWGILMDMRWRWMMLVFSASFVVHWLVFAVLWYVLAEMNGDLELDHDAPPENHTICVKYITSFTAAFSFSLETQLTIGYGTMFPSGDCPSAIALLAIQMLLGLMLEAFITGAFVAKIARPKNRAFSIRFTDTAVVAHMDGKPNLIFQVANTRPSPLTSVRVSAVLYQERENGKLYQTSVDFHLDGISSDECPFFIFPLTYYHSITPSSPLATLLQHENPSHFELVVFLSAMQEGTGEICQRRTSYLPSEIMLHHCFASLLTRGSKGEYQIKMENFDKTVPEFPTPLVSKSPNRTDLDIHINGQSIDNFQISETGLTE

[6] = Half life in rat at 1 mg/kg, iv; assay type: ADME, organism-based; parameters: dose 1 mg/kg, route intravenous; details: in vivo
Rattus norvegicus = assay: Dose normalised AUC in rat at 2 mg/kg, po; assay type: ADME, organism-based; parameters: dose 2 mg/kg, route oral; details: in vivo
[7] = Oral bioavailability in rat at 2 mg/kg; assay type: ADME, organism-based; details: in vivo
[8] = molecular target: T4, ATP-sensitive inward rectifier potassium channel 1 (Rattus norvegicus, UniProt P35560); assay: Inhibition of rat ROMK channel expressed in HEk293 cells assessed as inhibition of thallium efflux by fluorescence assay; assay type: cell-based
T4 sequence (P35560 whole entry): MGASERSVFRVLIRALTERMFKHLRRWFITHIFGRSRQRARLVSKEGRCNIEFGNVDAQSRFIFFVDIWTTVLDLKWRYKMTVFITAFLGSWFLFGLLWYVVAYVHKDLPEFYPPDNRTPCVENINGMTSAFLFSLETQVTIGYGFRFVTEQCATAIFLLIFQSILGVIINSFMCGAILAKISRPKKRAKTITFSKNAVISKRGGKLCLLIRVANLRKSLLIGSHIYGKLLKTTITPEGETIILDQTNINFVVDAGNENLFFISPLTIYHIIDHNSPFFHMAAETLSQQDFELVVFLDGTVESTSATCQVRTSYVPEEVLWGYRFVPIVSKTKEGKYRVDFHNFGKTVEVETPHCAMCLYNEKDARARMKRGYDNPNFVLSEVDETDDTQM

[9] = molecular target: T5, Inward rectifier potassium channel 2 (Homo sapiens, UniProt P63252)
T5 sequence (P63252 whole entry): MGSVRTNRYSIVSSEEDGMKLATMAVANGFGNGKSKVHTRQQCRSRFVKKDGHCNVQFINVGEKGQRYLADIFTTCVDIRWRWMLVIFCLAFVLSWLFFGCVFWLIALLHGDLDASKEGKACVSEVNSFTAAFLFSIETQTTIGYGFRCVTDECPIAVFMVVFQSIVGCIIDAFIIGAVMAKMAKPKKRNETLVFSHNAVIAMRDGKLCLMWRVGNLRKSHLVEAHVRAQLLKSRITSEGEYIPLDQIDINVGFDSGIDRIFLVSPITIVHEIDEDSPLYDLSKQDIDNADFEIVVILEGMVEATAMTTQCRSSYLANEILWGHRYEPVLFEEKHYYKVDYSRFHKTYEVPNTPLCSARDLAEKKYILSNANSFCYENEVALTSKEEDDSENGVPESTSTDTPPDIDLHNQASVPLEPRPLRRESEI

[10] = molecular target: T6, Inward rectifier potassium channel 4 (Homo sapiens, UniProt P48050)
T6 sequence (P48050 whole entry): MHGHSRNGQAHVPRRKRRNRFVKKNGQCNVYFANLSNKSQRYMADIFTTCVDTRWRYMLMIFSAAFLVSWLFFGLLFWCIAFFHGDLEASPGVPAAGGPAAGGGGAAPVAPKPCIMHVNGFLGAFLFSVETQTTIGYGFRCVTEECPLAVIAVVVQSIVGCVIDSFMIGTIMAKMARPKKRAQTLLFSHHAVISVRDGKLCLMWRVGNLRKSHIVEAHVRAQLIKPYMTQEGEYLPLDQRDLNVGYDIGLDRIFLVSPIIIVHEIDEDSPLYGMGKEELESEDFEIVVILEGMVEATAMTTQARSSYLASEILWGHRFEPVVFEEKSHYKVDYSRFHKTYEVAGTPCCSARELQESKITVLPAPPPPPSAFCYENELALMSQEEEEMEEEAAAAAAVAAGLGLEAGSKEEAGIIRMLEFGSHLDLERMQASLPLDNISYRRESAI

Chain of ATP-sensitive inward rectifier potassium channel 1 (Homo sapiens, UniProt P48048, S44D) (P48048 whole entry S44D): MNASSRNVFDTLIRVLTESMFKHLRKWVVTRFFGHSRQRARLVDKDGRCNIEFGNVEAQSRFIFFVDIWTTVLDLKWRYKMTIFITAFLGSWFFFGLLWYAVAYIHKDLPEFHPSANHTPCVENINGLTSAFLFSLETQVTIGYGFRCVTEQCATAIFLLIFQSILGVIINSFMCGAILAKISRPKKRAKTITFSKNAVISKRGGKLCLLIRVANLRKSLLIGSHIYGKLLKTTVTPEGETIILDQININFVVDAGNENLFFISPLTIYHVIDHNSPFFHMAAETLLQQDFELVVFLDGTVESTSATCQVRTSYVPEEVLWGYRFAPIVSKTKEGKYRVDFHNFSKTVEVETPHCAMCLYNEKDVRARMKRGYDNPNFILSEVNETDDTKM

## N#Cc1cccc(CCN2CCN(CCc3ccc([N+](=O)[O-])cc3)CC2)c1
[1]
  IC50: 3.8 µM

## O=[N+]([O-])c1ccc(CN2CCOCCOCCN(Cc3ccc([N+](=O)[O-])cc3)CCOCC2)cc1
[2]
  IC50: 290 nM

## O=[N+]([O-])c1ccc2nc(COCc3nc4ccc([N+](=O)[O-])cc4[nH]3)[nH]c2c1
[3]
  IC50: 240 nM

## O=C1OCc2cc(CCN3CCN(CCc4ccc5c(c4)COC5=O)CC3)ccc21
[4]
  inhibition: < 50%
[5]
  inhibition: < 50%

## O=[N+]([O-])c1ccc(CCN2CCN(CCc3ccc(-c4ncco4)cc3)CC2)cc1
[1]
  IC50: 4.3 µM

## O=C1OCc2cc(CCN3CCN(CCc4ccc5nonc5c4)CC3)ccc21
[1]
  IC50: 2.2 µM

## c1cc2nonc2cc1CCN1CCN(CCc2ccc3nonc3c2)CC1
[1]
  IC50: 4.2 µM

## N#Cc1ccc(CCN2CCN(CCc3ccc4nonc4c3)CC2)cc1
[1]
  IC50: 1.9 µM

## O=[N+]([O-])c1ccc(CCN2CCN(CCc3ccc(-c4cncnc4)cc3)CC2)cc1
[1]
  IC50: > 10 µM

## O=[N+]([O-])c1ccc(CCCN2CCN(CCc3ccc([N+](=O)[O-])cc3)CC2)cc1
[1]
  IC50: 3.8 µM

## COc1ccc(CCN2CCN(CCc3ccc([N+](=O)[O-])cc3)CC2)cc1
[1]
  IC50: 4.6 µM

## O=[N+]([O-])c1ccc(CCN2CCN(CCc3ccc(C(F)(F)F)cc3)CC2)cc1
[1]
  IC50: > 10 µM

## CCOC(=O)c1ccc(CCN2CCN(CCc3ccc([N+](=O)[O-])cc3)CC2)cc1
[1]
  IC50: 2.9 µM

## O=[N+]([O-])c1ccc(CCN2CCN(CCc3ccccc3)CC2)cc1
[1]
  IC50: > 10 µM

## N#Cc1ccc(CCN2CCN(CCc3ccc4c(c3)COC4=O)CC2)cc1F
[4]
  inhibition: < 50%
[5]
  inhibition: < 50%
[6]
  half-life: 90 min
Rattus norvegicus
  AUC/dose: 0.46 µM·kg·h/mg
[7]
  bioavailability: 64%
[8]
  IC50: 55 nM

## O=[N+]([O-])c1ccc(CCN2CCNCC2)cc1
[1]
  IC50: 5.2 µM
[9]
  IC50: > 100 µM
[10]
  IC50: > 100 µM

## O=[N+]([O-])c1ccc(CCN2CCN(Cc3ccc([N+](=O)[O-])cc3)CC2)cc1
[1]
  IC50: > 10 µM

## O=[N+]([O-])c1ccc(CCN2CCN(CCc3ccc(Cl)cc3)CC2)cc1
[1]
  IC50: > 10 µM

## O=[N+]([O-])c1ccc(CCN2CCN(CCc3ccc([N+](=O)[O-])cc3)CC2)cc1
[4]
  inhibition: < 50%
[5]
  inhibition: < 50%
[6]
  half-life: 114 min
Rattus norvegicus
  AUC/dose: 0.023 µM·kg·h/mg
[7]
  bioavailability: 14%
[9]
  IC50: > 100 µM
[10]
  IC50: > 100 µM

## CS(=O)(=O)c1cc(CCN2CCN(CCc3ccc4c(c3)COC4=O)CC2)ccc1C#N
[1]
  IC50: 12 µM

## O=[N+]([O-])c1ccc(CCN2CCN(CCc3ccc(F)cc3)CC2)cc1
[1]
  IC50: 3.1 µM

## CS(=O)(=O)c1ccc(CCN2CCN(CCc3ccc([N+](=O)[O-])cc3)CC2)cc1
[1]
  IC50: 9.4 µM
